In US7355079B2, “Thyronamine derivatives and analogs and methods of use thereof” (The Regents of the University of California, priority 2003, dated 2008):
pEC50: −log10 of the molar value. Entries after “also recorded” stand apart in the source; their conditions may differ.

What was measured:
[1] = test system: C57Bl/6J mice; assay: heart rate and blood pressure responses in mice; assay type: in vivo; details: mouse, i.p. approximately 75-80 mg/kg
Protocol: Heart rate and blood pressure responses were measured in an adult male C57Bl/6J mouse injected intraperitoneally with T1AM in 60% DMSO/40% normal saline at a dose of approximately 75-80 mg/kg body weight in two replicate experiments.
Heart rate and blood pressure responses were measured in two drug naive adult male C57Bl/6J mouse following intraperitoneal injection of T1AM at a dose of approximately 75 mg/kg body weight.

[2] = i.v. serum half-life; details: iv
[3] = test system: ex vivo rat heart preparation; assay: ex vivo rat heart preparation, cardiac output
Excerpt: (§1) One of the most consistent clinical findings in individuals with severe hypothyroidism is depression. […] The underlying mechanism of this potentiation remains to be elucidated. Other physiological manifestations of depression that may also have a TH component include thermoregulatory disturbances, decreased metabolic rate, decreased cardiorespiratory fitness, inactivity, and hyperglycemia. Recently we discovered 3-iodothyronamine (T1AM), a novel endogenous metabolite of TH (Scanlan et al., Nature Medicine 10:638, 2004) that is a potent agonist of rodent and human G protein-coupled trace amine associated receptors (Lindemann et al., Genomics 85:372, 2005).

[4] = target: T1, rat trace amine receptor (rTAR-1) (Rattus norvegicus, UniProt Q923Y9); assay: cAMP accumulation in HEK cells stably expressing rTAR-1; assay type: cell-based
T1 construct: expressed in transfected cells
T1 sequence (Q923Y9 whole entry): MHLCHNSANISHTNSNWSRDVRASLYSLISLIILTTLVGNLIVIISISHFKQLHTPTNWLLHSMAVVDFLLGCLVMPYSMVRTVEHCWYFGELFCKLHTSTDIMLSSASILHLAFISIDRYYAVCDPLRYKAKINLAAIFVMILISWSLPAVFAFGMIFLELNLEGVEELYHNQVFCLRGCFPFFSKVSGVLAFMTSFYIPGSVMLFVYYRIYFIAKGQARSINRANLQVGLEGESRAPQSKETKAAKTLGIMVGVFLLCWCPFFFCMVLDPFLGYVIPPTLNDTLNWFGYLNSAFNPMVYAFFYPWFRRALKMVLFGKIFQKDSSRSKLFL
Protocol: To test this, the synthetic iodo-thyronamines were assayed for their ability to stimulate cAMP accumulation in human embryonic kidney (HEK) cells stably expressing rTAR-1, as well as cells transfected with an empty vector. […] To address the issue of receptor selectivity, all of the iodo-thyronamines were tested for their ability to activate the dopamine receptors and the β-adrenergic receptors.
(§2) cAMP Assay. HEK293 cells were harvested in Krebs-Ringer-HEPES buffer (KRH) and preincubated in KRH with 200 μM 3-isobutyl-methylxanthine. For drug treatments cells were incubated in KRH with 100 μM 3-isobutyl-1-methylxanthine with the test compound (or 10 μM forskolin) for 1 hour at 37° C. The cells were then boiled for 20 minutes after adding an equal volume of 0.5 mM sodium acetate buffer, centrifuged to remove cell debris, and the resulting extract was analyzed for cAMP content using competitive binding of [^3H]cAMP to a cAMP binding protein (Diagnostic Products Corp., Los Angeles, Calif.). Data were normalized according to protein content as determined using the Bradford reagent (Bio-Rad). Concentration-response curves were plotted and EC50 values calculated with Prism software (GraphPad, San Diego, Calif.).

[5] = test system: mice; assay: responses of mice within minutes of T1AM injection; assay type: in vivo, mouse
Excerpt: as §1

[6] = test system: C57Bl/6J mice; assay: blood glucose levels of mice injected intraperitoneally; assay type: in vivo, mouse; details: 50 mg/kg
Protocol: (BTC; ambient temperature −31° C.).

[7] = test system: C57Bl/6J mice; assay: core body temperature of mice injected intraperitoneally or intracerebrally; assay type: in vivo; details: mouse, intraperitoneal or intracerebral injection
Protocol: Eight week old male C57 Black 6J (C57Bl/6J) mice were injected intraperitoneally (i.p.) with the indicated dose of 3-iodothyronamine (T1AM) dissolved in 60% DMSO and normal saline (pH 7.4). Mice were injected intraperitoneally with a dose of T1AM at 18.75, 37.5, or 75 mg/kg body weight. Core body temperature was measured as rectal temperature every 30 minutes for the first 2 hours and then again at 3, 4, and 24 hours post injection. The core body temperature response (with standard error) to each dose reflects the response of 7-8 mice in a room maintained at 24° C.
Core body temperature response was measured in an adult male C57Bl/6J mouse injected intraperitoneally with a dose of T1AM at 100 mg/kg T1AM. The mouse was implanted with a telemetry-emitting temperature sensing probe for more accurate measurement of core body temperature.
Thermal response was measured in an adult male C57Bl/6J mouse to a unilateral intracerebroventricular injection of T1AM dissolved in 60% DMSO/40% normal saline at a dose of 6.6 mg/kg body weight. The mouse was instrumented with a telemetry-emitting temperature sensing probe.

[8] = target: T2, mouse TAR-1 (Mus musculus, UniProt Q923Y8); assay: cAMP assay, activation of mouse TAR-1; assay type: cell-based
T2 construct: expressed in transfected cells
T2 sequence (Q923Y8 whole entry): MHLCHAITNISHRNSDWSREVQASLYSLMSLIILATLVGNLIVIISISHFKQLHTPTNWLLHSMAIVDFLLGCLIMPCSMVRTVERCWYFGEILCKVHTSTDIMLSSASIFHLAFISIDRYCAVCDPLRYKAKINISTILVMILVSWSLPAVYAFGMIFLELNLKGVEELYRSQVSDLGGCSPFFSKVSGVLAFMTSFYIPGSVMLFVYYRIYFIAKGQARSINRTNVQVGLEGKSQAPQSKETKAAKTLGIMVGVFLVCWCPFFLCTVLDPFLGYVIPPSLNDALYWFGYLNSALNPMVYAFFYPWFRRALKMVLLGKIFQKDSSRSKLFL
Protocol: as §2

Cl.NCCc1ccc(Oc2ccc(O)cc2)c(I)c1 [Compound T1AM, 3-iodothyronamine Hydrochloride]
heart rate throughout the treatment period [1]: remained constant
blood pressure ([1]; Hydrochloride): varied with the drop in body core temperature, but recovered to normal levels; also recorded: varied with the drop in body core temperature, but returned to normal levels
half-life [2]: 2 to 2.5 h
cardiac output [3]: rapidly reduce cardiac output
pEC50 [4]: 7.85
binding to the TAR receptor using a cAMP assay [4]: high affinity
increase in agonist potency for rTAR-1 relative to T0AM ([4]; addition of a single iodine atom to the 3-position of T0AM): ~10 fold
response of mice within minutes of injection [5]: reduction in their metabolic rate, body temperature, locomotor activity, and heart rate while blood glucose becomes elevated
hyperglycemia when body temperature is held constant ([6]; body temperature near 37° C. (BTC; ambient temperature ~31° C.)): still significant, but the effect is smaller in magnitude
blood glucose levels ([6]; i.p., room temperature (21° C.-22° C.), Hydrochloride): increase blood glucose levels; also recorded: significant increase in blood sugar levels
core body temperature after injection (decrease from approximately 38° C.) [7]: approximately 29 °C
period of decreased core body temperature [7]: 6.5 to 8 h
pEC50 [8]: 6.95
